Square brackets hold non-standard residues; d marks the D form. Peptide text beside a SMILES is read from it.
Experiments:
[1] = system: primary mouse cortical neuron cultures; experiment: Neuronal apoptosis after Aβ42 stress in WT primary cortical neurons (cleaved PARP, caspase 3); type: cell-based
Experimental: To this end, primary mouse cortical neuron cultures were exposed to either 2 μM or 25 μM of β-amyloid 1-42 (Aβ42) for 5 hours to induce Aβ42 cell stress. […] Levels of phosphorylated JNK (pJNK), total JNK (JNK), cleaved PARP and Tubulin (control) were determined. The ratio of pJNK/JNK served as a measure of JNK activity. The level of cleaved protein PARP, which is known to increase during apoptosis, served as a measure of neuronal apoptosis.
(§1) To obtain primary cortical neuronal cultures, E15.5 mice embryos were dissected in PBS (Phosphate Buffered Saline) 6% glucose, on ice. Embryos cortices were minced into small pieces and treated with PBS glucose trypsin (Sigma Aldrich, Saint-Louis, USA) for 20 min at 37° C. Dissociated cortical cells were cultured in Neurobasal media complemented with B27, Glutamax and penicillin-streptomycin (Gibco). Neurons were cultured at 37° C., 5% CO2 on pre-coated with poly-L-lysin (Sigma Aldrich) petri dishes. Neurons were cultured to maturity (7 days) before use.
(§2) To induce […] stress 2 μM of Aβ1-42 (Thermo Fisher Scientific, Mass., USA) were used during 5 h on cortical neurons. Aβ42-1 inversed peptide (Thermo Fisher Scientific) was used as negative control. AP 1-42 and Aβ42-1 were dissolved in pure water and incubated at 37° C. for 48 h before use. […]
(§3) For immunoblot analysis cells were lysed on ice in a lysis buffer containing […] NaPi pH 7.8, […] NaCl, 1% Triton, 0.5% DOC, 0.1% SDS, 10% glycerol, 0.1 μM calyculin A, 1 mM Na3VO4 and 1× of a protease inhibitor cocktail (Sigma Aldrich). Lysates were sonicated and centrifugated 10 min at 15000 g at 4° C. The supernatant protein concentration was determined with the Micro BCA protein assay kit (Thermo Scientific). Thirty micrograms of proteins were resolved on SDS-PAGE and transferred onto nitrocellulose membrane. After blocking with TBS 5% skim milk, the membranes were probed with primary antibodies to JNK full, c-Jun, PKR, eIF2α (Santa Cruz, Danvers, USA), pJNK (Millipore, Billerica, USA), phosphor eIF2a (Thermo Fisher Scientific), PARP and tubulin (Cell Signaling, Danvers, USA). IR Dyes 800 and 700 (Rockland Immunochemical Inc, Gilbertsville, USA) antibodies were used as secondary antibodies. Blots were reveled with Odyssey imaging system (LI-COR Biosciences, Lincoln, USA).
For caspase 3 activity analysis culture cell supernatants containing degenerating and dead neurons, and cell medium were collected in parallel of adhesive neurons lysis. Culture cell supernatants were centrifugated 10 min at 15000 g at 4° C. Pellets were then resuspended in lysis buffer and caspase 3 activity was measured by using the Caspase 3 Assay kit reagents and protocol (Abcam, Cambridge, UK).

JNK = JNK and c-Jun activation after Aβ42 stress in WT primary cortical neurons (immunoblot); type: cell-based, mouse
Experimental: To this end, primary mouse cortical neuron cultures were exposed to either 2 μM or 25 μM of β-amyloid 1-42 (Aβ42) for 5 hours to induce Aβ42 cell stress. Neurons were pre-treated with or without 10 μM of the specific inhibitor of JNK, XG-104 (SEQ ID No. 172). Levels of phosphorylated JNK (pJNK), total JNK (JNK), cleaved PARP and Tubulin (control) were determined. The ratio of pJNK/JNK served as a measure of JNK activity. The level of cleaved protein PARP, which is known to increase during apoptosis, served as a measure of neuronal apoptosis.
as §1, §2, §3

human whole blood = experiment: PMA+ionomycin-induced cytokine release in human whole blood; type: cell-based; conditions: 1, 3, 10 μM; 4 hours
Experimental: FIG. 19 JNK inhibition and IL-2 release in human whole blood. The JNK inhibitor with SEQ ID NO: 172 was added at three different concentrations, namely 1, 3 and 10 μM 1 h before whole blood stimulation with PMA+ionomycin (25/700 ng/mL, 50/800 ng/mL and 50/1000 ng/mL) for 4 hours.
FIG. 20 JNK inhibition and IFN-γ release in human whole blood. The JNK inhibitor with SEQ ID NO: 172 was added at three different concentrations, namely 1, 3 and 10 μM 1 h before whole blood stimulation with PMA+ionomycin (25/700 ng/mL, 50/800 ng/mL and 50/1000 ng/mL) for 4 hours.
FIG. 21 JNK inhibition and TNF-α release in human whole blood. The JNK inhibitor with SEQ ID NO: 172 was added at three different concentrations, namely 1, 3 and 10 μM 1 h before whole blood stimulation with PMA+ionomycin (25/700 ng/mL, 50/800 ng/ml and 50/1000 ng/mL) for 4 hours.
Whole blood is collected from anesthetized rat or human healthy volunteers using a venipuncture connected to a pre-labeled vacuum tube containing sodium citrate. Tubes are gently mixed by inversion 7-8 times; and are then kept at RT until stimulation. JNK inhibitor of SEQ ID NO: 172 is prepared 6 times concentrated in PBS, and 30 μl/well of mix is added into 96-well plate. Whole blood is diluted by 1:2 in PBS and 120 μl of diluted blood is added in each well where either PBS alone or JNK inhibitor of SEQ ID NO: 172 has been previously added. Whole blood is incubated at 37° C.; 85 rpm (Stuart Orbital incubator SI500) for 60 min. Activators (LPS) are the prepared, 30 μl/well of LPS, 6 times concentrated. After 60 min incubation, LPS is added to the blood, blood is mixed by pipetting up and down, and then kept for 4 h under agitation (85 rpm), at 37° C. After the 4 h incubation, the plates are centrifuged at about 770 g, 4° C. for 15 min in a pre-cooled centrifuge. […] Cytokine (IL-6, IL-2, IFNγ and TNFα) were then measured using standard Elisa kits (e.g. from R&D Systems: DuoSet Elisas; or from BD Biosciences: BD Opteia Set Elisa). Results are expressed as pg/ml of supernatant of the measured cytokine. […]

primary human T-cells = experiment: IL-2 secretion by primary human T-cells; type: cell-based
Source text: The JNK inhibitors used are indicated by their SEQ ID NO: 172 and 197.

[2] = WT neurons, 10 μM, vs Aβ42 treated WT neurons
[3] = WT neurons, 10 μM, 1 h before 2 μM Aβ42, vs stressed WT neurons without peptides

SMILES: CC(C)C[C@H](NC(=O)[C@H](CC(N)=O)NC(=O)[C@H](CC(C)C)NC(=O)[C@@H](NC(=O)[C@@H](C)NC(=O)[C@@H]1CCCN1C(=O)[C@H](CCCNC(=N)N)NC(=O)[C@@H](CCCCN)NC(=O)[C@@H]1CCCN1C(=O)[C@H](CCCNC(=N)N)NC(=O)[C@@H](CCCNC(=N)N)NC(=O)[C@H](CCCNC(=N)N)NC(=O)[C@H](CCCNC(=N)N)NC(=O)[C@H](CCC(N)=O)NC(=O)[C@@H](CCCNC(=N)N)NC(=O)[C@H](CCCNC(=N)N)NC(=O)[C@H](CCCCN)NC(=O)[C@H](CCCCN)NC(=O)[C@H](N)CCCNC(=N)N)[C@@H](C)O)C(=O)N[C@H](Cc1ccccc1)C(N)=O [SEQ ID NO: 172, rKKRrQRRrRPkRPaTLNLf] (H-[dR]KKR[dR]QRR[dR]RP[dK]RP[dA]TLNL[dF]-NH2; N-terminus assumed)
- decrease of PARP cleavage ([1]; 2 μM Aβ42, 5 μM pre-treatment): 46.8%
- decrease of PARP cleavage ([1]; 2 μM Aβ42, 10 μM pre-treatment): 80.2%
- decrease of PARP cleavage ([1]; 25 μM Aβ42, 5 μM pre-treatment): 69%
- decrease of PARP cleavage ([1]; 25 μM Aβ42, 10 μM pre-treatment): 80.6%
- efficiency to reduce apoptosis, 10 μM relative to 5 μM ([1]; Aβ42-induced apoptosis): 1.7
- decrease of caspase 3 activity [1, 2]: 78%
- decrease of cleaved PARP expression level [1, 2]: 77%
- reduction of cleaved caspase 3 expression level [1, 2]: 61%
- decrease of JNK activity (pJNK/JNK) (JNK; 2 μM Aβ42 5 hours, 5 μM pre-treatment): 29.2%
- decrease of JNK activity (pJNK/JNK) (JNK; 2 μM Aβ42 5 hours, 10 μM pre-treatment): 60%
- decrease of JNK activity (pJNK/JNK) (JNK; 25 μM Aβ42 5 hours, 5 μM pre-treatment): 17.5%
- decrease of JNK activity (pJNK/JNK) (JNK; 25 μM Aβ42 5 hours, 10 μM pre-treatment): 59.6%
- JNK activation (JNK; WT neurons, 10 μM, 1 h before 2 μM Aβ42): −60%
- c-Jun expression (JNK; [3]): −62%
- c-Jun phosphorylation (JNK; [3]): −29%
- PMA+ionomycin-induced IFN-γ release (human whole blood): did reduce the PMA+ionomycin-induced IFN-γ release in a dose-dependent manner
- PMA+ionomycin-induced IL-2 release (human whole blood): did reduce the PMA+ionomycin-induced IL-2 release in a dose-dependent manner
- PMA+ionomycin-induced TNF-α release (human whole blood): did reduce the PMA+ionomycin-induced TNF-α release in a dose-dependent manner
- IL-2 secretion in response to CD3/CD28 stimulation (primary human T-cells): blocks IL-2 secretion
- IL-2 secretion in response to PMA/Ionomycin (primary human T-cells): blocks IL-2 secretion
